Reference: patent publication US9199975B2, “Biaryl imidazole derivatives for regulating CYP17” (Asana Biosciences, LLC, priority 2011, dated 2015)

Target: T1, human CYP17 (Homo sapiens, UniProt P05093)
T1 sequence (P05093 1-508): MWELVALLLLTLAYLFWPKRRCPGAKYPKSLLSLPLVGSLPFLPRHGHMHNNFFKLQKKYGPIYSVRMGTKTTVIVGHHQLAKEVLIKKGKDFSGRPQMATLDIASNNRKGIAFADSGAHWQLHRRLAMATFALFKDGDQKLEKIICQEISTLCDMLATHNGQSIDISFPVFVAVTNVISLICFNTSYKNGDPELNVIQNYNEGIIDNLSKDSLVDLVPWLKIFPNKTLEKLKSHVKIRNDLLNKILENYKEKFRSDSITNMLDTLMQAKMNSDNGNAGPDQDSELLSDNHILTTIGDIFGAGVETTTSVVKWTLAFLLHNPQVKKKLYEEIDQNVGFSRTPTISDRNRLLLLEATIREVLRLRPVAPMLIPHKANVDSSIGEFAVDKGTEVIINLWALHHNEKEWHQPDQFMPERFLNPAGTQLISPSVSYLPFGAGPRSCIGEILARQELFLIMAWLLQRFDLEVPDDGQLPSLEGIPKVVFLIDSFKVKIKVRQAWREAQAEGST
Assay: CYP17 inhibition assay in yeast microsomes overexpressing human CYP17
Type: biochemical
Conditions: yeast microsomes expressing human CYP17, 3H3-17α-hydroxypregnenolone substrate, 60 minutes at 37° C.
Experimental: CYP17 Inhibition Assay in Rat Testicular Microsomes (Rat CYP17) or Yeast Microsome Overexpressing Human CYP17
A. Materials • 1. NADPH (Sigma): A working stock was prepared by adding 25 μL of 6.5 mM NADPH in each tube. The final concentration of NADPH used in the assay was 325 μM. • 2. Potassium Phosphate Buffer: One molar (1M) solutions of K2HPO4 and KH2PO4 were prepared. Eight mL of the 1 M KH2PO4 and 1.98 mL of the 1 M K2HPO4 were combined and the pH was adjusted to 7.4. • 3. ^3H3-17α-hydroxypregnenolone (American Radiolabeled Chemicals, Inc., stock 1 μCi/μL): A 1:1 dilution of ^3H3-17α-hydroxypregnenolone in ethanol was prepared by combining 100 μL ^3H3-17α-hydroxypregnenolone+100 μL ethanol for one complete 96 well plate. For the reaction, 2 μL of the diluted ^3H3-17α-hydroxypregnenolone was added in each tube, i.e., 1 μCi/reaction. • 4. Microsome Isolation Buffer: The microsome isolation buffer was prepared by combining 250 mM Sucrose, 5 mM EDTA, 10 mM Tris HCl, 4 mM DTT, and adjusting to pH 7.4. • 5. TEG Buffer: The TEG buffer was prepared by combining 50 mM Tris HCl, 1 mM EDTA, and 20% Glycerol. • 6. Rat Testicular Microsomes: Rat testis tissue was collected and disrupted with 30 strokes of a glass homogenizer on ice with 250 μL of microsome isolation buffer, followed by centrifugation at 10,000 g for 10 minutes at 4° C. The supernatant was collected and centrifuged at 100,000 g for 45 minutes at 4° C. The pellet was dissolved in TEG Buffer and the protein was quantified. The homogenized microsome samples were then frozen at −80° C. • 7. Yeast Microsomes which overexpress the human CYP17 enzyme were obtained from Premas Biotech, India.
Potassium phosphate buffer (470 μL) was prepared as described above and was added to each well of a deep well plate. The test compound was diluted using a TECAN liquid handler and 5 μL of diluted compound was transferred to each well (96 deep well/1 mL). A solution (25 μL) of 6.5 mM NADPH was added (final concentration of 325 µM in the assay). ^3H3-17α-hydroxypregnenolone (2 μL of the working stock) was added to each tube. The plates were then pre-incubated for 15 minutes at 37° C. Following the pre-incubation, either 5 μL rat testicular microsomes (150-160 μg) or 5 μL of yeast microsomes expressing human CYP17 (1.7 pmol), was added. Incubation was at 37° C. for 60 minutes in the presence of oxygen. The plates were then placed in ice and chloroform (500 μL) was added, mixed well and incubated at 4° C. for 20 minutes. The plates were then centrifuged at 1000 rpm for 15 minutes at 4° C.
A portion (300 μL) of the aqueous solution was collected and mixed with a 5% aqueous suspension of activated charcoal (300 μL). The plates were then incubated at 4° C. for 30 minutes, after which the plates were centrifuged at 1000 rpm for 15 minutes at 4° C. From this, 125 μL of the aqueous solution was collected and plated into a 96 well plate. Microscint™ 40 [125 μL, Perkin-Elmer; containing a mixture of a polymer based on alkylphenolethoxylate (20-40%), diethanolamine-phosphoric acid ester ammonium salt (10-20%), sodium dioctyl sulphosuccinate (2.5-10%), triethyl phosphate (2.5-10%), 3,6-dimethyl-4-octyne-3,6-diol (≦2.5%), a polymer based on nonylphenolethoxylate (≦2.5%), diisopropyl naphthalene isomers (40-60%), 2,5-diphenyloxazole (≦2.5%), and 9,10-dimethylanthracene] was added and mixed well. After 30 minutes of incubation, the samples were analyzed with a MicroBeta® Trilux microplate liquid scintillation counter and luminometer (Perkin-Elmer).

IC50 [nM]	SMILES
201 to 10000	CCC(c1cnc(-c2ccc(OC)cc2)s1)n1ccnc1 (stereo not drawn) [Example 35, 5-(1-Imidazol-1-yl-propyl)-2-(4-methoxy-phenyl)-thiazole]
50 to 200	CCC(c1ccc(-c2ccccc2O)cn1)n1ccnc1 (stereo not drawn) [Example 37, 2-[6-(1-Imidazol-1-yl-propyl)-pyridin-3-yl]-phenol]
201 to 10000	CCC(c1cccc(-c2ccc(OC)cc2)n1)n1ccnc1 (stereo not drawn) [Example 38, 2-(1-Imidazol-1-yl-propyl)-6-(4-methoxy-phenyl) pyridine]
201 to 10000	CCC(c1ccc(-c2ccc(OC)cc2)cn1)n1ccnc1 (stereo not drawn) [Example 47, 2-(1-Imidazol-1-yl-propyl)-5-(4-methoxy-phenyl)-pyridine]
50 to 200	CC(c1ccc(-c2ccc(O)cc2)s1)n1ccnc1 (stereo not drawn) [Example 49, 4-[5-(1-Imidazol-1-yl-ethyl)-thiophen-2-yl]-phenol]
< 50	CCC(c1ccc(-c2ccc(O)cc2)cn1)n1ccnc1 (stereo not drawn) [Example 50, 4-[6-(1-Imidazol-1-yl-propyl)-pyridin-3-yl]-phenol]
201 to 10000	CCC(c1ccc(-c2ccccc2OC)cn1)n1ccnc1 (stereo not drawn) [Example 56, 2-(1-Imidazol-1-yl-propyl)-5-(2-methoxy-phenyl)-pyridine]
201 to 10000	CCC(c1cnc(-c2ccc(O)cc2)s1)n1ccnc1 (stereo not drawn) [Example 60, 4-[5-(1-Imidazol-1-yl-propyl)-thiazol-2-yl]-phenol]

The remaining lines, values behind:

SMILES	IC50 [nM]
CCC(c1ccc(-c2cccc(OC)c2)cn1)n1ccnc1 (stereo not drawn) [Example 7, 2-(1-(1H-imidazol-1-yl)propyl)-5-(3-methoxyphenyl)pyridine]	< 50
CCC(c1ccc(-c2cccc(O)c2)cn1)n1ccnc1 (stereo not drawn) [Example 8, 3-(6-(1-(1H-imidazol-1-yl)propyl)pyridin-3-yl)phenol]	< 50
CC(c1ccc(-c2ccc(=O)n(C)c2)s1)n1ccnc1 (stereo not drawn) [Example 20, 5-(5-(1-(1H-imidazol-1-yl)ethyl)thiophen-2-yl)-1-methylpyridin-2(1H)-one]	201 to 10000
COc1ccc(-c2ccc(C(C)(C)n3ccnc3)s2)cc1 [Example 24, 1-(2-(5-(4-methoxyphenyl)-thiophen-2-yl)-propan-2-yl)-1H-imidazole]	50 to 200
CCC(c1ccc(-c2ccc(OC)cc2)o1)n1ccnc1 (stereo not drawn) [Example 27, 1-{1-[5-(4-Methoxy-phenyl)-furan-2-y]-propyl}-1H-imidazole]	< 50
CC(c1cnc(-c2ccc(F)cc2F)s1)n1ccnc1 (stereo not drawn) [Example 28, 2-(2,4-Difluoro-phenyl)-5-(1-imidazol-1-yl-ethyl)-thiazole]	50 to 200
CCC(c1ccc(-c2ccc(O)cc2)o1)n1ccnc1 (stereo not drawn) [Example 30, 4-[5-(1-Imidazol-1-yl-propyl)-furan-2-yl]-phenol]	< 50
